From ChEMBL document CHEMBL1138719, “Tocopherol long chain fatty alcohols decrease the production of TNF-alpha and NO radicals by activated microglial cells” (Bioorg Med Chem Lett, 2004)
Activity calls are given as the source filed them. The rule behind the calls is not given here.

Legend:
Format in all cases: functional, cell-based
[1] = tested on: MMGT12; assay: inhibition of LPS-induced TNF-alpha production in mouse MMGT12 cells at 1e-5 M to 1e-7 M concentration; No effect
[2] = tested on: MMGT12; assay: inhibition of LPS-induced TNF-alpha production in mouse MMGT12 cells at 1e-5 M concentration; Slight inhibition
[3] = tested on: MMGT12; assay: inhibition of LPS-induced nitrite accumulation in mouse MMGT12 cells at 1e-6 M concentration; Slight inhibition
[4] = tested on: MMGT12; assay: inhibition of LPS-induced nitrite accumulation in mouse MMGT12 cells at 1e-5 M concentration; Strong inhibition inhibition
[5] = tested on: MMGT12; assay: inhibition of LPS-induced TNF-alpha production in mouse MMGT12 cells at 1e-6 M; Major inhibition
[6] = tested on: MMGT12; assay: inhibition of LPS-induced TNF-alpha production in mouse MMGT12 cells at 1e-5 M; Major inhibition

SMILES | Activity [1] | Activity [2] | Activity [3] | Activity [4] | Activity [5] | Activity [6]
Cc1c(C)c2c(c(C)c1O)CCC(C)(CCC[C@H](C)CCCC(C)CCCC(C)C)O2 (single isomer, unassigned) | inactive |  |  |  |  | 
Cc1c(C)c2c(c(C)c1O)CCC(C)(CCCCCCCCCCCCCCCCO)O2 (stereo unspecified) |  | Slight inhibition | Slight inhibition | Slight inhibition |  | 
Cc1c(C)c2c(c(C)c1O)CCC(C)(CCCCCCCCCCO)O2 (stereo unspecified) | inactive |  |  |  |  | 
Cc1c(C)c2c(c(C)c1O)CCC(C)(CCCCCCCCCCCCCCO)O2 (stereo unspecified) |  |  |  | Major inhibition | Major inhibition | Major inhibition
Cc1c(C)c2c(c(C)c1O)CCC(C)(CCCCCCCCCCCCO)O2 (stereo unspecified) |  |  |  | Major inhibition | Major inhibition | Major inhibition
